According to PMC10186366 (ACS Pharmacology & Translational Science, 2023):

Columns and labels:
[1] = system: SHMT2 (mitochondrial C1 metabolism) in KB tumor cells; experiment: Targeted metabolomics flux analysis with [2,3,3-2H]serine in KB cells; assay type: cell-based, human; settings: 0.1 μM compound, 250 μM [2,3,3-2H]serine, versus vehicle-treated cells
Excerpt: Serine is catabolized in the mitochondria via SHMT2, which converts serine to glycine and 5,10-methylene THF, the latter of which is metabolized by MTHFD2 to 10-CHOTHF and by MTHFD1L to formate (Figure 7).
The cells were processed for liquid chromatography–mass spectrometry (LC–MS) analysis of total serine and glycine, and deuterated serine (M + 3, M + 2, M + 1, and M + 0 serine, where M + n represents species with n deuterium atoms) and glycine (M + 1 and M + 0) isotopomers. The results are shown in Figure 8 and are compared to those for control (vehicle-treated) cells (labeled “N/A”).
Figure 8 Metabolomics flux analysis with [2,3,3-^2H]serine to assay mitochondrial C1 metabolism via SHMT2. (A) A schematic of [2,3,3-^2H]serine metabolism is shown. Heavy (^2H) atoms in serine (colored circles) are metabolized via SHMT2 initially followed by MTHFD2 and MTHFD1L to formate. (B, C) Total serine and glycine and the distribution of the serine (M + n, n = 0−3) and glycine (n = 0 or 1) isotopomers are shown. The loss of M + 3 serine corresponding to the metabolism of [2,3,3-^2H]serine to M + 1 glycine is a direct measure of SHMT2 activity in the cells.[45] Experimental methods are described in the Experimental Section. Results are shown as mean values plus/minus standard deviations (n = 3). *P < 0.05; **P < 0.01. […]
KB cells (1 × 10[6]) were seeded in each of three 60 mm dishes in folate-, serine-, and glycine-free RPMI1640 supplemented with 10% DFBS, 1% penicillin/streptomycin, 2 mM L-glutamine, 285 μM serine, 130 μM glycine, and 2 nM leucovorin. […] The targeted metabolites were quantitatively determined using the AB Sciex QTRAP 6500 LC–MS/MS system. […] Isotopomers were detected using multiple reaction monitoring (MRM) at the positive ionization mode. […] Absolute metabolite concentrations were calculated from calibration curves and then normalized to total protein concentrations measured from the postextraction pellet (solubilized in 0.5 N NaOH) using the Folin-phenol method.[53] […] To correct for multiple comparisons, adjusted p values were determined using Holm’s method.

[2] = system: PC43-10 CHO cells (expresses only human RFC); settings: 96 h; mean (standard error); previously published; cited from earlier work
[3] = system: D4 CHO cells (expresses only human FRβ); settings: 96 h; mean (standard error); previously published; cited from earlier work

Structure (SMILES) | Increase in M + 3 serine [1] | IC50 [2] | IC50 [3]
Nc1nc2sc(CCCc3ccc(C(=O)N[C@@H](CCC(=O)O)C(=O)O)c(F)c3)cc2c(=O)[nH]1 [Compound 6, (4-(3-(2-Amino-4-oxo-3,4-dihydrothieno[2,3-d]pyrimidin-6-yl)propyl)-2-fluorobenzoyl)-L-glutamic Acid] | 2–4 fold | – | –
Nc1nc2sc(CCCc3ccc(C(=O)N[C@@H](CCC(=O)O)C(=O)O)cc3)cc2c(=O)[nH]1 [Compound 1] | 2–4 fold | > 1000 nM | 112 nM
